Holding throughout (format): in vivo
Assay [1] deals with pigweed (Amaranthus retroflexus). The experiment in a line: Test C postemergence, plant response rating. The settings on record: Amaranthus retroflexus, post-emergence; for pest or weed control at 16 g/ha: 16 g ai/ha; for pest or weed control at 16 g/ha / pest or weed control at 31 g/ha: scale 0 to 100; for pest or weed control at 31 g/ha: 31 g ai/ha; for pest or weed control at 62 g/ha: 62 g ai/ha; for pest or weed control at 62 g/ha / pest or weed control at 125 g/ha: scale 0 to 100 (0 no effect, 100 complete control); for pest or weed control at 125 g/ha: 125 g ai/ha. A digest of the protocol:
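Visual injury score, 0 = no effect, 100 = complete control, assigned against untreated controls after 13 to 15 d in the greenhouse. Compounds were applied in a surfactant-containing non-phytotoxic solvent mix, preemergence to seeded loam/sand or silt loam soil, or postemergence to 1- to 4-leaf plants (2 to 18 cm).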

Assay [2] relates to blackgrass (Alopecurus myosuroides). The experiment in a line: Test A postemergence, visual injury rating. The settings on record: 0 is no effect, 100 is complete control; for pest or weed control at 125 g/ha / pest or weed control at 500 g/ha: Alopecurus myosuroides, post-emergence, 240 h, read-out: Blackgrass plant response rating (0 to 100 scale). A digest of the protocol: (§1)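 Visual 0–100 rating (100 = complete control) taken about 10 d post-treatment relative to untreated checks. Preemergence: directed soil spray on sown loam/sand pots. Postemergence: seedlings 2–10 cm, 1–2 leaf. Non-phytotoxic solvent formulation with surfactant.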

Assay [3] deals with Italian ryegrass (Lolium multiflorum). The experiment in a line: Test A postemergence, visual injury rating. The settings on record: 0 is no effect, 100 is complete control; for pest or weed control at 125 g/ha / pest or weed control at 500 g/ha: Lolium multiflorum, post-emergence, 240 h, read-out: Ryegrass, Italian plant response rating (0 to 100 scale). The essentials: as §1

For assay [4], the system named is wheat (Triticum aestivum). The experiment in a line: Test A postemergence, visual injury rating. The settings on record: 0 is no effect, 100 is complete control; for plant injury at 125 g/ha / plant injury at 500 g/ha: Triticum aestivum, post-emergence, 240 h, read-out: Wheat plant response rating (0 to 100 scale). A digest of the protocol: as §1
For assay [5], the system named is galium (catchweed bedstraw, Galium aparine). The experiment in a line: Test A postemergence, visual injury rating. The settings on record: 0 is no effect, 100 is complete control; for pest or weed control at 125 g/ha / pest or weed control at 500 g/ha: Galium, post-emergence, 240 h, read-out: Galium plant response rating (0 to 100 scale). The essentials:
as §1

Assay [6] deals with pigweed (Amaranthus retroflexus). The experiment in a line: Test A postemergence, visual injury rating. The note with it: 0 is no effect, 100 is complete control; for pest or weed control at 125 g/ha / pest or weed control at 500 g/ha: Amaranthus retroflexus, post-emergence, 240 h, read-out: Pigweed plant response rating (0 to 100 scale). The essentials: as §1
The test system of assay [7] is barnyardgrass (Echinochloa crus-galli). The experiment in a line: Test A postemergence, visual injury rating. The settings on record: 0 is no effect, 100 is complete control; for pest or weed control at 125 g/ha / pest or weed control at 500 g/ha: Echinochloa crus-galli, post-emergence, 240 h, read-out: Barnyardgrass plant response rating (0 to 100 scale). The essentials:
as §1

Assay [8] has as its system giant foxtail (Setaria faberii). The experiment in a line: Test A postemergence, visual injury rating. The note with it: 0 is no effect, 100 is complete control; for pest or weed control at 125 g/ha / pest or weed control at 500 g/ha: Setaria faberi, post-emergence, 240 h, read-out: Foxtail, Giant plant response rating (0 to 100 scale). The essentials: as §1
The test system of a further assay is corn (Zea mays). The experiment in a line: Test A postemergence, visual injury rating. The note with it: 0 is no effect, 100 is complete control; for plant injury at 125 g/ha / plant injury at 500 g/ha: Zea mays, post-emergence, 240 h, read-out: Corn plant response rating (0 to 100 scale). A digest of the protocol:
as §1

The subject of assay [9] is ragweed (common ragweed, Ambrosia elatior). The experiment in a line: Test A postemergence, visual injury rating. The settings on record: 0 is no effect, 100 is complete control; for pest or weed control at 125 g/ha / pest or weed control at 500 g/ha: Ambrosia artemisiifolia, post-emergence, 240 h, read-out: Ragweed plant response rating (0 to 100 scale). A digest of the protocol:
as §1

In another assay the test system is kochia (Kochia scoparia). The experiment in a line: Test A postemergence, visual injury rating. The settings on record: 0 is no effect, 100 is complete control; for pest or weed control at 125 g/ha / pest or weed control at 500 g/ha: Bassia scoparia, post-emergence, 240 h, read-out: Kochia plant response rating (0 to 100 scale). The essentials: as §1
The subject of assay [10] is ducksalad (Heteranthera limosa). Briefly: Test B flooded paddy test, plant response rating. The note with it: 250 g ai/ha; Flood; scale of 0 to 100 where 0 is no effect and 100 is complete control; 13 to 15 days. The essentials:
(§2)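 Test compounds are applied straight into paddy water held 3 cm above the soil surface, with that flood maintained for the whole test. After 13 to 15 days in the greenhouse, each species is scored visually relative to controls.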

A further assay has as its system rice (Oryza sativa). Briefly: Test B flooded paddy test, plant response rating. The note with it: 250 g ai/ha; Flood; scale of 0 to 100 where 0 is no effect and 100 is complete control; 13 to 15 days. The essentials:
as §2

The test system of assay [11] is barnyardgrass (Echinochloa crus-galli). Briefly: Test B flooded paddy test, plant response rating. The settings on record: 250 g ai/ha; Flood; scale of 0 to 100 where 0 is no effect and 100 is complete control; 13 to 15 days. The essentials: as §2
Assay [12] deals with sedge, umbrella (small-flower umbrella sedge, Cyperus difformis). Briefly: Test B flooded paddy test, plant response rating. The note with it: 250 g ai/ha; Flood; scale of 0 to 100 where 0 is no effect and 100 is complete control; 13 to 15 days. A digest of the protocol: as §2

In [1], `O=C(OCCC(F)(F)F)c1c(Cl)cccc1Oc1ncc(Cl)cn1` [Compound 15, 3,3,3-trifluoropropyl 2-chloro-6-[(5-chloro-2-pyrimidinyl)oxy]benzoate] registered a pest or weed control at 16 g/ha of 90%. The same molecule yielded a pest or weed control at 31 g/ha in [1] of 90%. Also, the pest or weed control at 62 g/ha in [1] is 95%. Also, the pest or weed control at 125 g/ha in assay [1] amounted to 98%; in [2] (125 g ai/ha), 90%; in [3] (125 g ai/ha), 60%; in [5] (125 g ai/ha), 100%; in [6] (125 g ai/ha) it was 100%; in assay [7] (125 g ai/ha), 90%. Moreover, the pest or weed control at 125 g/ha came to 90% in assay [8] (125 g ai/ha), 20% in assay [9] (125 g ai/ha) and 100% in the assay on kochia (Kochia scoparia) (125 g ai/ha). Also, the pest or weed control at 500 g/ha in assay [2] (500 g ai/ha) was 100%; in assay [3] (500 g ai/ha), 90%; in [5] (500 g ai/ha), 100%; in assay [6] (500 g ai/ha), 100%; in [7] (500 g ai/ha), 100%; in assay [8] (500 g ai/ha), 100%. In addition, the pest or weed control at 500 g/ha was 40% in [9] (500 g ai/ha) and 100% with kochia (Kochia scoparia) (500 g ai/ha). Moreover, the plant injury at 125 g/ha in [4] (125 g ai/ha) turned out to be 20%; in the assay with corn (Zea mays) (125 g ai/ha), 50%. For the same molecule, the plant injury at 500 g/ha in [4] (500 g ai/ha) was determined as 100%; in the assay with corn (Zea mays) (500 g ai/ha), 90%.

As to `CC(CC(F)(F)F)OC(=O)c1c(Br)cccc1Oc1ncc(Cl)cn1` (stereo not drawn) [Compound 16, 3,3,3-trifluoro-1-methylpropyl 2-bromo-6-[(5-chloro-2-pyrimidinyl)oxy]benzoate], the pest or weed control at 16 g/ha in assay [1] turned out to be 50%. This molecule also returned a pest or weed control at 31 g/ha in [1] of 75%. In assay [1], this molecule had a pest or weed control at 62 g/ha of 85%. For the same molecule, the pest or weed control at 125 g/ha stood at 50% in assay [1]; 20% in [2] (125 g ai/ha); 10% in [3] (125 g ai/ha); 90% in [5] (125 g ai/ha); 90% in assay [6] (125 g ai/ha); 10% in assay [7] (125 g ai/ha). Further, the pest or weed control at 125 g/ha was 20% in [8] (125 g ai/ha), 10% in [9] (125 g ai/ha) and 80% with kochia (Kochia scoparia) (125 g ai/ha). For the same molecule, the pest or weed control at 500 g/ha came to 90% in assay [2] (500 g ai/ha); 30% in assay [3] (500 g ai/ha); 100% in assay [5] (500 g ai/ha); 100% in assay [6] (500 g ai/ha); 90% in assay [7] (500 g ai/ha); 90% in assay [8] (500 g ai/ha). For the same molecule, the pest or weed control at 500 g/ha in [9] (500 g ai/ha) amounted to 30%; with kochia (Kochia scoparia) (500 g ai/ha) it was 100%. Besides, the plant injury at 125 g/ha (in assay [4] (125 g ai/ha); in the assay with corn (Zea mays) (125 g ai/ha)) was 20% in each case. For the same molecule, the plant injury at 500 g/ha in assay [4] (500 g ai/ha) came out at 20%; in the assay on corn (Zea mays) (500 g ai/ha), 60%.

As for `N#Cc1cccc(Oc2ncc(Cl)cn2)c1C(=O)OCCC(F)(F)F` [Compound 30], in [10], the “Plant response rating, Ducksalad” value came to 40. Besides, the “Plant response rating, Rice” value in the assay with rice (Oryza sativa) was 0. For the same molecule, the “Plant response rating, Barnyardgrass” value in [11] is listed as 0. Besides, the “Plant response rating, Sedge, Umbrella” value in assay [12] was 0. In addition, the “Blackgrass plant response rating (0 to 100 scale)” value was found to be 10 in [2] (125 g ai/ha) and 30 in assay [2] (500 g ai/ha). Moreover, the “Ryegrass, Italian plant response rating (0 to 100 scale)” value in assay [3] (125 g ai/ha) and in [3] (500 g ai/ha) was 0 in each case. In addition, the “Wheat plant response rating (0 to 100 scale)” value is recorded as 0 in assay [4] (125 g ai/ha) and 30 in [4] (500 g ai/ha). For the same molecule, the “Galium plant response rating (0 to 100 scale)” value stood at 60 in assay [5] (125 g ai/ha) and 100 in assay [5] (500 g ai/ha). For the same molecule, the “Pigweed plant response rating (0 to 100 scale)” value in assay [6] (125 g ai/ha) and in assay [6] (500 g ai/ha) was 100 in each case. Further, the “Barnyardgrass plant response rating (0 to 100 scale)” value in assay [7] (125 g ai/ha) worked out at 0; in [7] (500 g ai/ha), 20. In addition, the “Foxtail, Giant plant response rating (0 to 100 scale)” value was determined as 60 in assay [8] (125 g ai/ha) and 100 in assay [8] (500 g ai/ha). The “Corn plant response rating (0 to 100 scale)” value in the assay on corn (Zea mays) (125 g ai/ha) is listed as 30; with corn (Zea mays) (500 g ai/ha), 70. Moreover, the “Ragweed plant response rating (0 to 100 scale)” value in assay [9] (125 g ai/ha) and in assay [9] (500 g ai/ha) was 0 each time. Further, the “Kochia plant response rating (0 to 100 scale)” value in the assay with kochia (Kochia scoparia) (125 g ai/ha) and in the assay with kochia (Kochia scoparia) (500 g ai/ha) was 100 in each case.
